How the values were obtained:
[1] = tested on: P. falciparum female gametocytes; test: P. falciparum Dual Gamete Formation Assay (PfDGFA), female readout (Pfs25-positive female gametes); type: cell-based, Plasmodium falciparum NF54; settings: for Average inhibition female (%): average of replicates; for % inhibition female (individual replicates) R1: replicate R1; for % inhibition female (individual replicates) R3: replicate R3; for % inhibition female (individual replicates) R4: replicate R4
Procedure, shortened: (§1)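 First, day-14 P. falciparum NF54 gametocytes receive compound for 24 h at 37°C in 1% O2/3% CO2. Next, ookinete medium with Cy3 anti-Pfs25 triggers gametogenesis at 28°C and male exflagellation is imaged. Finally, after 24 h in the dark, Cy3-labelled females are imaged.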

[2] = tested on: P. falciparum male gametocytes; test: P. falciparum Dual Gamete Formation Assay (PfDGFA), male readout (exflagellation); type: cell-based, Plasmodium falciparum NF54; settings: for Average inhibition male (%): average of replicates; for % inhibition male (individual replicates) R1: replicate R1; for % inhibition male (individual replicates) R3: replicate R3; for % inhibition male (individual replicates) R4: replicate R4; for Activity: hit = >50% inhibition in male or female readout in at least 3 replicates, 0 = no class assigned
Procedure, shortened: as §1

[3] = PfDGFA at 2µM, 24h preincubation with gametocytes
[4] = number of replicates with >50% inhibition in the female readout, 2µM
[5] = number of replicates with >50% inhibition in the male readout, 2µM
[6] = 2µM, 24h preincubation with gametocytes prior to induction of gametogenesis
[7] = 2µM, 24h preincubation, number of replicates with >50% inhibition in the female readout
[8] = 2µM, 24h preincubation, number of replicates with >50% inhibition in the male readout
[9] = PfDGFA at 2µM, 24h preincubation with gametocytes prior to induction of gametogenesis
[10] = PfDGFA at 2µM, 24h preincubation
[11] = 2µM, 24h preincubation, hits selected on >50% inhibition in the female readout across replicates
[12] = 2µM, 24h preincubation, hits selected on >50% inhibition in the male readout across replicates

Structure (SMILES) | Average inhibition female (%) [1, 6] [%] | % inhibition female (individual replicates) R1 [1, 6] [%] | % inhibition female (individual replicates) R3 [1, 6] [%] | % inhibition female (individual replicates) R4 [1, 6] [%] | HitlevelF [1, 7] | Average inhibition male (%) [2, 6] [%] | % inhibition male (individual replicates) R1 [2, 6] [%] | % inhibition male (individual replicates) R3 [2, 6] [%] | % inhibition male (individual replicates) R4 [2, 6] [%] | HitlevelM [2, 8] | HitlevelF [1, 11] | HitlevelM [2, 12] | Activity [2, 10] | other results
COc1ccc(CNC2CCN(C)CC2)cc1-c1cccc(S(=O)(=O)NCc2ccccc2)c1.O=C(O)C(F)(F)F [TCMDC-132267] | – | – | – | – | – | – | – | – | – | – | – | – | – | Average inhibition female (%) [1, 3]: 16.9%; % inhibition female (individual replicates) R1 [1, 3]: 27.9%; % inhibition female (individual replicates) R3 [1, 3]: 4.5%; % inhibition female (individual replicates) R4 [1, 3]: 10.9%; HitlevelF [1, 4]: 0; Average inhibition male (%) [2, 3]: 67.3%; % inhibition male (individual replicates) R1 [2, 3]: 62.4%; % inhibition male (individual replicates) R3 [2, 3]: 55.8%; % inhibition male (individual replicates) R4 [2, 3]: 79.6%; HitlevelM [2, 5]: 4
COc1ccc(CNC2Cc3ccccc3C2)cc1-c1cccc(S(=O)(=O)NCCN2CCCC2)c1.O=C(O)C(F)(F)F [TCMDC-132269] | 23.4 | 14.9 | -7.5 | 55.1 | 1 | 7.0 | 7.1 | -13.3 | 18.2 | 0 | – | – | – | –
COc1ccc(CNCc2ccc(F)cc2)cc1-c1ccc(S(=O)(=O)NCCN2CCCC2)cc1.O=C(O)C(F)(F)F [TCMDC-132294] | 26.6 | 28.2 | 29.3 | 24.2 | 0 | -4.3 | -26.4 | – | 1.5 | 0 | – | – | – | –
Cl.N[C@@H](CCNC1CCN(c2cccc(C(F)(F)F)c2)CC1)Cc1ccc(F)c(F)c1 [TCMDC-132301] | 52.8 | 47.6 | 42.6 | 73.6 | 1 | 53.1 | 61.1 | 44.2 | 79.6 | 2 | – | – | – | –
CC(O)C1CCCCN1C(=O)c1ccc(-c2ccc(-c3nc4ccccc4[nH]3)s2)cc1 (stereo not drawn) [TCMDC-132330] | – | – | – | – | – | – | – | – | – | – | – | – | – | % inhibition female (individual replicates) R1 [1, 9]: 7.4%; % inhibition female (individual replicates) R3 [1, 9]: -27.3%; % inhibition female (individual replicates) R4 [1, 9]: 14.9%; Average inhibition female (%) [1, 10]: -1.0%; % inhibition male (individual replicates) R1 [2, 9]: 10.5%; % inhibition male (individual replicates) R3 [2, 9]: 7.6%; % inhibition male (individual replicates) R4 [2, 9]: 19.6%; Average inhibition male (%) [2, 10]: 14.0%
CN(C)Cc1ccc(-c2ccc(NC(=O)c3ccc4c(=O)n(Cc5ccccc5)cnc4c3)cc2)cc1 [TCMDC-132361] | 36.5 | 37.4 | 28.0 | 35.8 | 0 | 62.7 | 57.2 | – | 53.6 | 3 | – | – | – | –
COc1ccc(-c2cccc(CNC3CCN(C)CC3)c2)cc1S(=O)(=O)NCc1ccccc1.O=C(O)C(F)(F)F [TCMDC-132375] | 14.0 | 15.7 | 4.8 | 20.5 | – | 31.3 | 25.4 | 11.7 | 56.9 | – | 0 | 1 | 0 | –
Cc1cc(-c2cccc(CNC3CCN(C)CC3)c2)ccc1S(=O)(=O)NCc1ccccc1.O=C(O)C(F)(F)F [TCMDC-132379] | 17.5 | 20.6 | 25.5 | -4.5 | – | 43.8 | 43.1 | 25.4 | 55.6 | – | 0 | 2 | 0 | –
COc1ccc(CNC2CCN(C)CC2)cc1-c1ccc(S(=O)(=O)NCc2ccccc2)c(C)c1.O=C(O)C(F)(F)F [TCMDC-132480] | – | – | – | – | – | – | – | – | – | – | – | – | – | Average inhibition female (%) [1, 3]: 36.3%; % inhibition female (individual replicates) R1 [1, 3]: 30.7%; % inhibition female (individual replicates) R3 [1, 3]: 36.3%; % inhibition female (individual replicates) R4 [1, 3]: 41.6%; HitlevelF [1, 4]: 0; Average inhibition male (%) [2, 3]: 78.0%; % inhibition male (individual replicates) R1 [2, 3]: 73.4%; % inhibition male (individual replicates) R3 [2, 3]: 67.7%; % inhibition male (individual replicates) R4 [2, 3]: 91.6%; HitlevelM [2, 5]: 4
CCS(=O)(=O)c1ccc(-c2cnc3[nH]cc(-c4ccc(N)cc4)c3c2)cc1 [TCMDC-132582] | 24.2 | 25.6 | 29.8 | 22.2 | 0 | 35.5 | 70.7 | – | -32.7 | 2 | – | – | – | –
Cc1cccc2nc(-c3ccc(-c4cccc(CNC5CCN(C)CC5)c4)s3)[nH]c12.O=C(O)C(F)(F)F [TCMDC-132736] | 18.0 | 17.1 | 23.2 | 22.3 | – | 63.8 | 48.5 | – | 67.2 | – | 0 | 2 | 0 | –
CN(CCN)Cc1ccc(-c2ccc(-c3nc4cc(C(F)(F)F)ccc4[nH]3)s2)cc1.O=C(O)C(F)(F)F [TCMDC-132821] | 8.7 | 4.7 | 20.4 | 7.1 | – | -7.8 | -14.8 | – | -7.6 | – | 0 | 0 | 0 | –
CNCCNCc1ccc(-c2ccc(-c3nc4cc(F)ccc4[nH]3)s2)cc1.O=C(O)C(F)(F)F [TCMDC-132829] | – | – | – | – | – | – | – | – | – | – | – | – | – | Average inhibition female (%) [1, 3]: 12.3%; % inhibition female (individual replicates) R1 [1, 3]: 11.4%; % inhibition female (individual replicates) R3 [1, 3]: 10.0%; % inhibition female (individual replicates) R4 [1, 3]: 9.0%; HitlevelF [1, 4]: 0; Average inhibition male (%) [2, 3]: 66.0%; % inhibition male (individual replicates) R1 [2, 3]: 54.3%; % inhibition male (individual replicates) R4 [2, 3]: 78.8%; HitlevelM [2, 5]: 3
CNCCNCc1cccc(-c2ccc(-c3nc4cc(C(F)(F)F)ccc4[nH]3)s2)c1.O=C(O)C(F)(F)F [TCMDC-132830] | 26.5 | 19.8 | 8.2 | 49.8 | 0 | 36.6 | 35.0 | 16.5 | 60.2 | 1 | – | – | – | –
CNCCNCc1ccc(-c2ccc(-c3nc4cc(C(F)(F)F)ccc4[nH]3)cc2)cc1.O=C(O)C(F)(F)F [TCMDC-132833] | 17.0 | 21.1 | 25.6 | 19.1 | – | 23.6 | 9.5 | 12.3 | 50.2 | – | 0 | 1 | 0 | –
CNCCNCc1cccc(-c2ccc(-c3nc4cc(C(F)(F)F)ccc4[nH]3)cc2)c1.O=C(O)C(F)(F)F [TCMDC-132834] | 13.1 | 23.3 | 8.2 | 10.1 | – | 47.7 | 40.3 | 3.4 | 68.9 | – | 0 | 2 | 0 | –
CNCCNCc1ccc(-c2cccc(-c3nc4cc(F)ccc4[nH]3)c2)cc1.O=C(O)C(F)(F)F [TCMDC-132836] | – | – | – | – | – | – | – | – | – | – | – | – | – | % inhibition female (individual replicates) R1 [1, 9]: -0.65%; % inhibition female (individual replicates) R3 [1, 9]: 8.4%; % inhibition female (individual replicates) R4 [1, 9]: 2.6%; Average inhibition female (%) [1, 10]: 2.2%; % inhibition male (individual replicates) R1 [2, 9]: -5.6%; % inhibition male (individual replicates) R4 [2, 9]: -19.2%; Average inhibition male (%) [2, 10]: -13.9%

— paper PMC10584170, “Machine learning-based phenotypic imaging to characterise the targetable biology of Plasmodium falciparum male gametocytes for the development of transmission-blocking antimalarials” (PLOS Pathogens, 2023)
